Tests used:
[1] = Cmax in CD-1 mouse plasma at 10 mg/kg, po administered as single dose by LC-MS/MS analysis; type: ADME, organism-based; set-up: dose 10 mg/kg, route oral
[2] = tested on: U-87 MG; test: Antitumor activity against luciferase-fused human U87MG cells orthotopically xenografted in nude mouse assessed as tumor growth inhibition at 50 mg/kg, po qd for 4 weeks by bioluminescence imaging relative to control; type: functional, U-87MG ATCC; conditions: 672 h, read-out: TGI
[3] = tested on: U-87 MG; test: Antitumor activity against luciferase-fused human U87MG cells orthotopically xenografted in nude mouse assessed as increase in mouse life span at 50 mg/kg, po qd for 5 weeks relative to control; type: functional, U-87MG ATCC; conditions: 840 h
[4] = target: Tyrosine-protein kinase JAK3 (Homo sapiens) (UniProt P52333); test: Inhibition of recombinant human GST-tagged JAK3 expressed in baculovirus expression system at 1 uM by TR-FRET assay relative to control
[5] = Half life in ICR mouse at 5 mg/kg, po administered as single dose by LC-MS/MS analysis; type: ADME, organism-based; conditions: in vivo
[6] = tested on: Mus musculus; test: In vivo inhibition of CDK4/6 in nude mouse xenografted with human COLO205 cells assessed as reduction in Ser-780-phosphorylated Rb level in tumor administered via oral gavage after 24 hrs by Western blot analysis; type: functional, organism-based
[7] = AUC (0 to 24 hrs) in Sprague-Dawley rat at 5 mg/kg, po administered as single dose by LC-MS/MS analysis; type: ADME, organism-based; set-up: time < 24 hr, dose 5 mg/kg, route oral; conditions: in vivo
[8] = Tmax in CD-1 mouse brain at 10 mg/kg, po administered as single dose by LC-MS/MS analysis; type: ADME, organism-based
[9] = target: Dual specificity protein kinase CLK1 (Homo sapiens) (UniProt P49759); test: Inhibition of recombinant human GST-tagged CLK1 expressed in Escherichia coli at 0.1 uM by Z'-Lyte assay relative to control
[10] = tested on: Mitogen-activated protein kinase kinase kinase 7; test: Inhibition of TAK1 (unknown origin) at 0.1 uM by TR-FRET assay relative to control; conditions: Homo sapiens
[11] = target: Casein kinase I isoform alpha (Homo sapiens) (UniProt P48729); test: Inhibition of recombinant full length human GST-tagged CK1alpha expressed in baculovirus expression system at 0.1 uM by Z'-Lyte assay relative to control
[12] = target: Mitogen-activated protein kinase 8 (Homo sapiens) (UniProt P45983); test: Inhibition of recombinant human full length His-tagged JNK1 expressed in baculovirus expression system at 1 uM by Z'-Lyte assay relative to control
[13] = target: Tyrosine-protein kinase JAK2 (Homo sapiens) (UniProt O60674); test: Inhibition of recombinant human GST-tagged JAK2 expressed in baculovirus expression system at 1 uM by TR-FRET assay relative to control
[14] = tested on: U-87 MG; test: Antiproliferative activity against human U87MG cells after 72 hrs by DAPI staining based assay; type: functional, cell-based, U-87MG ATCC
[15] = target: Tyrosine-protein kinase Srms (Homo sapiens) (UniProt Q9H3Y6); test: Inhibition of recombinant human full length GST-tagged SRMS expressed in baculovirus expression system at 0.1 uM by TR-FRET assay relative to control
[16] = Half life in Sprague-Dawley rat at 2 mg/kg, iv administered as single dose by LC-MS/MS analysis; type: ADME, organism-based; conditions: in vivo
[17] = tested on: Epidermal growth factor receptor (Homo sapiens), P00533 [L858R,T790M]; test: Inhibition of recombinant human GST-tagged EGFR T790M/L858R double mutant expressed in baculovirus expression system at 0.1 uM by TR-FRET assay relative to control
[18] = target: Tyrosine-protein kinase JAK1 (Homo sapiens) (UniProt P23458); test: Inhibition of recombinant human GST-tagged JAK1 expressed in baculovirus expression system at 1 uM by TR-FRET assay relative to control
[19] = target: Serine/threonine-protein kinase PAK 4 (Homo sapiens) (UniProt O96013); test: Inhibition of recombinant human GST-tagged PAK4 expressed in baculovirus expression system at 0.1 uM by Z'-Lyte assay relative to control
[20] = target: Serine/threonine-protein kinase MARK1 (Homo sapiens) (UniProt Q9P0L2); test: Inhibition of recombinant human full length GST-tagged MARK1 expressed in baculovirus expression system at 1 uM by Z'-Lyte assay relative to control
[21] = target: Phosphatidylinositol 4,5-bisphosphate 3-kinase catalytic subunit gamma isoform (Homo sapiens) (UniProt P48736); test: Inhibition of PI3K gamma (unknown origin) at 0.1 uM by ADP-Glo assay relative to control
[22] = target: Serine/threonine-protein kinase 10 (Homo sapiens) (UniProt O94804); test: Inhibition of LOK1 (unknown origin) at 1 uM by Z'-Lyte assay relative to control
[23] = target: Cyclin-dependent kinase 4/cyclin D1 (Homo sapiens) (UniProt P11802+P24385); test: Inhibition of recombinant full length human GST-tagged CDK4/Cyclin-D1 expressed in baculovirus expression system at 1 uM by TR-FRET assay relative to control
[24] = target: Aurora kinase A (Homo sapiens) (UniProt O14965); test: Inhibition of recombinant full length human His-tagged AURKA expressed in baculovirus expression system at 0.1 uM by Z'-Lyte assay relative to control
[25] = target: Tyrosine-protein kinase ITK/TSK (Homo sapiens) (UniProt Q08881); test: Inhibition of recombinant full length human GST-tagged ITK expressed in baculovirus expression system at 1 uM by TR-FRET assay relative to control
[26] = AUC (0 to 24 hrs) in ICR mouse at 2 mg/kg, iv administered as single dose by LC-MS/MS analysis; type: ADME, organism-based; set-up: dose 2 mg/kg, time < 24 hr, route intravenous; conditions: in vivo
[27] = target: Calcium/calmodulin-dependent protein kinase type II subunit beta (Homo sapiens) (UniProt Q13554); test: Inhibition of recombinant full length human His-tagged CAMK2B expressed in baculovirus expression system at 0.1 uM by Z'-Lyte assay relative to control
[28] = target: Casein kinase II subunit alpha (Homo sapiens) (UniProt P68400); test: Inhibition of recombinant full length human His-tagged CK2alpha1 expressed in baculovirus expression system at 1 uM by Z'-Lyte assay relative to control
[29] = tested on: Proto-oncogene tyrosine-protein kinase receptor Ret (Homo sapiens), P07949 [V804L]; test: Inhibition of recombinant human GST-tagged RET V804L mutant expressed in baculovirus expression system at 1 uM by Z'-Lyte assay relative to control
[30] = Dissociation constant, pKa of the compound at pH 3 to 11 by pH metric method; type: physicochemical
[31] = tested on: U-87 MG; test: Antitumor activity against luciferase-fused human U87MG cells orthotopically xenografted in nude mouse assessed as increase in mouse life span at 25 mg/kg, po qd for 5 weeks relative to control; type: functional, U-87MG ATCC; conditions: 840 h
[32] = target: Casein kinase I isoform gamma-1 (Homo sapiens) (UniProt Q9HCP0); test: Inhibition of recombinant full length human GST-tagged CK1gamma1 expressed in baculovirus expression system at 0.1 uM by Z'-Lyte assay relative to control
[33] = target: Phosphatidylinositol 4,5-bisphosphate 3-kinase catalytic subunit delta isoform (Homo sapiens) (UniProt O00329); test: Inhibition of PI3K delta (unknown origin) at 1 uM by ADP-Glo assay relative to control

Chain of Tyrosine-protein kinase JAK1 (Homo sapiens) (P23458 whole entry): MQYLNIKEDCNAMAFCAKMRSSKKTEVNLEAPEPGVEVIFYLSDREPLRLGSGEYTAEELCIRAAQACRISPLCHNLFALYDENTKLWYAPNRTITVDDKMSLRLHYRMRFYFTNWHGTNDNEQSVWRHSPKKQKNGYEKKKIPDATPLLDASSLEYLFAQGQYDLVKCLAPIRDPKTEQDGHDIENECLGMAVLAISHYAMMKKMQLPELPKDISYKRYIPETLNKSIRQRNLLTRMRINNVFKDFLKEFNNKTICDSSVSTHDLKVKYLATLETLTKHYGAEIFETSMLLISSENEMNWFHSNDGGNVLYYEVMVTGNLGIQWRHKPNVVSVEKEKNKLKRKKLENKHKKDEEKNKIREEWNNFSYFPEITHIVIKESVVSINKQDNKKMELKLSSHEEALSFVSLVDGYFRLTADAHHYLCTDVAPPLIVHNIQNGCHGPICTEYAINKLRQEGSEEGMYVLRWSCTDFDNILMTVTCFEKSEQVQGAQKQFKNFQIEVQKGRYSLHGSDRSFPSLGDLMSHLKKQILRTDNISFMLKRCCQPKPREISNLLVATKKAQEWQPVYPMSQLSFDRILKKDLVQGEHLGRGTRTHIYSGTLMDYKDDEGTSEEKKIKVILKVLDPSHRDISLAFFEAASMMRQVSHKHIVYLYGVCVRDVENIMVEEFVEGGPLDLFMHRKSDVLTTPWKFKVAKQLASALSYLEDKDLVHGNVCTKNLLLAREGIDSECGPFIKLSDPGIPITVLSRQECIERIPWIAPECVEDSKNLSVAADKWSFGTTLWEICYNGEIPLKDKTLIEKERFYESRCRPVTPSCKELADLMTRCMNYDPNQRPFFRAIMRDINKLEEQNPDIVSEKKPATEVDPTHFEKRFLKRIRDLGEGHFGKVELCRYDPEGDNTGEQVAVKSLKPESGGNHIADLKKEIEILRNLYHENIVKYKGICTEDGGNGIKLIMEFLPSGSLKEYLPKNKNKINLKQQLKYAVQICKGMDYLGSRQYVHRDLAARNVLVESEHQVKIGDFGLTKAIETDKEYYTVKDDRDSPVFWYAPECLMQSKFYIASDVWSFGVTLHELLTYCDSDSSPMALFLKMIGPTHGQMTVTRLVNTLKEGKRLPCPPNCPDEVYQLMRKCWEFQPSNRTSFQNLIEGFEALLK
Chain of Tyrosine-protein kinase Srms (Homo sapiens) (Q9H3Y6 whole entry): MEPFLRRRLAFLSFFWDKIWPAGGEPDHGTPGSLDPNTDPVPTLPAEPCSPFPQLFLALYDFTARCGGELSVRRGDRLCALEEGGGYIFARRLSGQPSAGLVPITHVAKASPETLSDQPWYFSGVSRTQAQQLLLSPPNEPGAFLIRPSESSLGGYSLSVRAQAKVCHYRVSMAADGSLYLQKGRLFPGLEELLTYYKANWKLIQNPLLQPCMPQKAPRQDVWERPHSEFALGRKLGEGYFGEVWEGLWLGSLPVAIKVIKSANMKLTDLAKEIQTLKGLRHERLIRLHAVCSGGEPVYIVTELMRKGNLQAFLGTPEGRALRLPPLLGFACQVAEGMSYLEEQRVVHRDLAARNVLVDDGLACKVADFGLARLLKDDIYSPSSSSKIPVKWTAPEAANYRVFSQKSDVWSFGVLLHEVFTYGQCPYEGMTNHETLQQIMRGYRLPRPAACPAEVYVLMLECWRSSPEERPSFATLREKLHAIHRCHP
Chain of Casein kinase I isoform alpha (Homo sapiens) (P48729 2-337 limits assumed): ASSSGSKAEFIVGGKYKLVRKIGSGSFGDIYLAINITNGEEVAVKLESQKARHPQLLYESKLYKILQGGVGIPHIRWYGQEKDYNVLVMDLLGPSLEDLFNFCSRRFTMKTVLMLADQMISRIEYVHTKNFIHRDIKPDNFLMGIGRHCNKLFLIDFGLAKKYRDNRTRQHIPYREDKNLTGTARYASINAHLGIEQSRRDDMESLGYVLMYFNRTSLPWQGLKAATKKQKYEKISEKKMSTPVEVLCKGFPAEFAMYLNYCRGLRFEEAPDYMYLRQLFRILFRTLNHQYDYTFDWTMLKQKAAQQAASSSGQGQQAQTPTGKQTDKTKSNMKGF
Chain of Casein kinase I isoform gamma-1 (Homo sapiens) (Q9HCP0 whole entry, looked up, canonical isoform): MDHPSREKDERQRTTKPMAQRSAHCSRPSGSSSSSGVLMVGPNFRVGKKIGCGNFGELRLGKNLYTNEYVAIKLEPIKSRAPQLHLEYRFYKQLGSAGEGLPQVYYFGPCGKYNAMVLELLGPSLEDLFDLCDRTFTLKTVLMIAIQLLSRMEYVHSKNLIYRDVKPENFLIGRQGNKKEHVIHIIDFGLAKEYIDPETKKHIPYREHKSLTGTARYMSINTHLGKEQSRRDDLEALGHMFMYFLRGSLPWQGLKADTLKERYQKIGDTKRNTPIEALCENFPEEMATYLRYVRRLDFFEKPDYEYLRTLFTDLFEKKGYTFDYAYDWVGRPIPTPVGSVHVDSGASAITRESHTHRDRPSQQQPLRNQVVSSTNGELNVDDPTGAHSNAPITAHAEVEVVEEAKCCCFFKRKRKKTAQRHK
Chain of Tyrosine-protein kinase JAK3 (Homo sapiens) (P52333 whole entry): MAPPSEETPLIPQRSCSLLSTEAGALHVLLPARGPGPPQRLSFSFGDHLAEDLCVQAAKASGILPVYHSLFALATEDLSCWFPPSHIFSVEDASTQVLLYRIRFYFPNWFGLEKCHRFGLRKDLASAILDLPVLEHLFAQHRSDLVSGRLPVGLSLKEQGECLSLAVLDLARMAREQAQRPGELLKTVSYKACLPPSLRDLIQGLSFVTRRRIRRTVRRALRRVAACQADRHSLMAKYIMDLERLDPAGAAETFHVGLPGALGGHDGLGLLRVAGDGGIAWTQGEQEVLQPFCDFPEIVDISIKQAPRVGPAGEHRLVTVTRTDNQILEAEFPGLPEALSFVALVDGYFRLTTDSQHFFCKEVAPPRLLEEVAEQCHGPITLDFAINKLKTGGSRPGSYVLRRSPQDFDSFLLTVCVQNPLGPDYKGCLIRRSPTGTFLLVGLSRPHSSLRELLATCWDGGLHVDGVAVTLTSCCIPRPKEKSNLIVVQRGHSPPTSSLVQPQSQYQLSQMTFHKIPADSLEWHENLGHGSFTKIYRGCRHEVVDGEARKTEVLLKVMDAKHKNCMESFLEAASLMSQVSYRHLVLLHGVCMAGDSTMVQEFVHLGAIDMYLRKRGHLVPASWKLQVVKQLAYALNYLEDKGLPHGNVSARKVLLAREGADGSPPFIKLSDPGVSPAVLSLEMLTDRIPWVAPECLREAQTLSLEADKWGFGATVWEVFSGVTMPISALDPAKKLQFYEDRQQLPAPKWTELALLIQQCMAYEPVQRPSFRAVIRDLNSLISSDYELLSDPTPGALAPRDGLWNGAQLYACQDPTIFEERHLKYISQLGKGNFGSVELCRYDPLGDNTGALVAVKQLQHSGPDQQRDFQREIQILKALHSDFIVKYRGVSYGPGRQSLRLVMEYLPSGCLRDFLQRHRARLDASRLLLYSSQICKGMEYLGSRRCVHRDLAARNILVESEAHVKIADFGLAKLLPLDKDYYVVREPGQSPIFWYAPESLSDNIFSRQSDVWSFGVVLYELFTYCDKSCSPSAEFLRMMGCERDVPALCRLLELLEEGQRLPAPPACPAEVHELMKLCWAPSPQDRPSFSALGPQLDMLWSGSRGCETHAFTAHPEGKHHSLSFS
Chain of Aurora kinase A (Homo sapiens) (O14965 whole entry): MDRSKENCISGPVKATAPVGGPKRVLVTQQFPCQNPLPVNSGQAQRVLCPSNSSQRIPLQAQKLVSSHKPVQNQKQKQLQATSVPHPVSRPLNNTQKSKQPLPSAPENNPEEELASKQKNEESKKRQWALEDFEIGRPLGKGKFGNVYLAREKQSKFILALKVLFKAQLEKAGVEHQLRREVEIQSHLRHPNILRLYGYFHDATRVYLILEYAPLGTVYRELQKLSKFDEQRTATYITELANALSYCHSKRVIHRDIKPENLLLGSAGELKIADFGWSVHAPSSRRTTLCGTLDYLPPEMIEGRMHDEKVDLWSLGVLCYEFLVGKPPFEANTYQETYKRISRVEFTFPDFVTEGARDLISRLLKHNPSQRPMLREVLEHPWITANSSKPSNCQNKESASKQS
Chain of Casein kinase II subunit alpha (Homo sapiens) (P68400 whole entry, looked up): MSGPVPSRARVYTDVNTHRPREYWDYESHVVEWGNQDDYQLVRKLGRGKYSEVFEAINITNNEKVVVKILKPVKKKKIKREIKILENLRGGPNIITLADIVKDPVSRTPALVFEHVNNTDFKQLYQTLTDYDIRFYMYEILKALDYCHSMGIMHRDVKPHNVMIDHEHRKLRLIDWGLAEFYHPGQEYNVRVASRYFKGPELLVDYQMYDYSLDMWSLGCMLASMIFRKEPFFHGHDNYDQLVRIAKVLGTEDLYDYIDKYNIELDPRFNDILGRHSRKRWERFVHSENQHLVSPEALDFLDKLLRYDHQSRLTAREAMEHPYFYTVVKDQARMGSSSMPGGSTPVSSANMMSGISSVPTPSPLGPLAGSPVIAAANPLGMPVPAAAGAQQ
Chain of Serine/threonine-protein kinase PAK 4 (Homo sapiens) (O96013 whole entry, looked up): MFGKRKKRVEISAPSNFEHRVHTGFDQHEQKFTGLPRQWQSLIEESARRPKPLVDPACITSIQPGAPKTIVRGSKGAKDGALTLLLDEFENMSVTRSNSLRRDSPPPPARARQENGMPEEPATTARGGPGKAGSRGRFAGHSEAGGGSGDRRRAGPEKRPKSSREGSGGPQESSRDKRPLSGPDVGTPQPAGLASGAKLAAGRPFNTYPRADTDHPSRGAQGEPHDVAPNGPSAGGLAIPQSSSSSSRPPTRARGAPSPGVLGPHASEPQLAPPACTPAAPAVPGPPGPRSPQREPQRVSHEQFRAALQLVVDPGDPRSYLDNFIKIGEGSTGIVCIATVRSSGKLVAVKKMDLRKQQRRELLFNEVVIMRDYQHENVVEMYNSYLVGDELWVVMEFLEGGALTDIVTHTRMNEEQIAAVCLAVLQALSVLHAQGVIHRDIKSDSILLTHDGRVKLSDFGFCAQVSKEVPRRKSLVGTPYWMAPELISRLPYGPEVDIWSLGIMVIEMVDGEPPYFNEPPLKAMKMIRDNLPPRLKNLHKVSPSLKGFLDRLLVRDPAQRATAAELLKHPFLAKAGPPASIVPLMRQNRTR

CC1=Nc2c(F)cc(-c3nc(Nc4ccc(C5CCN(C)CC5)cn4)ncc3F)cc2C12CCCC2 [CROZBACICLIB] gave a Cmax [1] of 818 ng/mL, an inhibition in vivo at 50 mg/kg [2] of 99% and an ILS at 50 mg/kg [3] of 162%. The inhibition [4] was 92%, the half-life [5] was 8.38 h and the inhibition [6] was “Dose-dependent effect”. It also gave an AUC(0-t) at 24 h [7] of 1530 ng·h/mL, a Tmax [8] of 2 h and an inhibition [9] of 28%. It also gave an inhibition [10] of 5%, an inhibition [11] of -3% and an inhibition [12] of 82%. It also gave an inhibition [13] of 64%, an IC50 [14] of 15.3 nM and an inhibition [15] of 20%. For the same compound, the half-life [16] was 7.1 h, the inhibition [17] was 27% and the inhibition [18] was 24%. For the same compound, the inhibition [19] was 4%, the inhibition [20] was 16% and the inhibition [21] was -5%. It also gave an inhibition [22] of 81%, an inhibition [23] of 107% and an inhibition [24] of -2%. The inhibition [25] was 3%, the AUC(0-t) at 24 h [26] was 1140 ng·h/mL and the inhibition [27] was 25%. The inhibition [28] was 23%, the inhibition [29] was 16% and the pKa [30] was 8.19. For the same compound, the ILS at 25 mg/kg [31] was 103%, the inhibition [32] was 3% and the inhibition [33] was 14%.

Source: ChEMBL document CHEMBL4251601 (Eur J Med Chem, 2018)
